Experimental data published in patent US20050282818A1, “Ubiquitin ligase inhibitors” (Rigel Pharmaceuticals, Inc., priority 2004, published 2005).
Read-outs that look alike come from different tables or passages of the source.

Tests used:
Format in all cases: cell-based
OVCAR8 cells = experiment: Cell proliferation PAD assay, OVCAR8; settings: Homo sapiens, OVCAR-8, 6pt, 48 hours
Experimental: (§1) Cell lines used are available from American Type Culture Collection (ATCC), for example, cell cultures containing A549 (ATCC# CCL-185), HeLa (ATCC# CCL-2), HCT116 ATTC# CCL-247), and H1299 (ATCC# CRL-5803) cells were maintained in T175 flasks following the ATCC recommended media and handling procedures. […] A 20,000 cells/ml solution was made for plating. Cells were plated in black Packard 96 well plates by placing 100 μl per well (2,000 cells per well). […] The definitions of the cell types used are as follows: A549 is lung carcinoma; HI 299 is non-small cell lung carcinoma; HI 155 is non-small cell lung carcinoma; AsPC-1 is pancreatic adenocarcinoma; Caov-3 is ovarian adenocarcinoma; COLO 205 is colorectal adenocarcinoma; DLD-1 colorectal adenocarcinoma; HCT116 is colorectal carcinoma; DU 145 is prostate carcinoma; ES-2 is ovarian clear cell carcinoma; H460 is large cell lung carcinoma; HELA is cervical adenocarcinoma; MIA PaCa-2 is pancreatice carcinoma; OVCAR-3 is ovarian adenocarcinoma; OVCAR8 is ovarian carcinoma; PC3 is prostate adenocarcinoma; SK-OV-3 is ovarian adenocarcinoma; SU86.86 is pancreatic carcinoma; TOV-21G is avarian clear cell carcinoma; U2OS is bone osteosarcoma; is ASPC-I is pancreatic adenocarcinoma; BXPC-3 is pabcreatic adenocarcinoma; HL60 is promyeloblast promyelocytic leukemia; K562 is bone marrow chronic myelogenous leukemia; L1210 is mouse lymphocytic leukemia; MOLT3 is T lymphoblast acute lymphoblastic leukemia; MOLT4 is T lymphoblast acute lymphoblastic leukemia; SW620 is colorectal adenocarcinoma; THP-1 is monocyte acute monocytic leukemia; U937 is histiocytic lymphoma; and UACC-257 is melanoma.
(§2) Compounds and additional media were added 24 hours after cell plating. […] All compound testing was done in duplicate using 6.3 fold dilutions starting with 10 mM. […] Taxol and at least one additional control were run on all plates. Three microliters of the compound master plate were added to deep well blocks containing 750 μl of RPMI media. One hundred microliters were transferred from the compound/media deep well blocks to the plated cells resulting in a 500 fold dilution of the compounds. Cells were grown at 37° C., 5% CO2 for 48 hours.
(§3) Cells to be analyzed by photography were fixed and stained. One hundred microliters of media were removed and 100 μl of 9.3% formamide was added to each well. Plates were left on the benchtop for 45 minutes. A staining solution containing 1.55 μl of 1 mg/ml DAPI added to 18.75 ml PBS was warmed for 15 minutes at 37° C. The cells were aspirated prior to washing with 100 μl of PBS. Seventy microliters of PBS were aspirated and 170 μl of the DAPI solution were added to each well of fixed cells. Plates were left at room temperature for one hour then aspirated and washed twice with 100 μl of PBS. The stained cells were left at 4° C. for a minimum of 16 hours before photographic analysis with Array Scan II (Cellomics). Analysis of the photographic images to determine numbers of live cells (proliferation), apoptotic cells and dead cells, were according to the methods described in U.S. Utility patent application Ser. No. 10/652,440, which incorporated herein in its entirety.

UACC-257 cells = experiment: Cell proliferation PAD assay, UACC-257; settings: Homo sapiens, UACC257 cells, 6pt, 48 hours
Experimental: as §1, §2, §3

DLD-1 cells = experiment: Cell proliferation PAD assay, DLD-1; settings: Homo sapiens, DLD1 cells, 6pt, 48 hours
Source text: (§4) Table 3 illustrates the inhibitory activity of the compounds of the invention determined by the PAD assay described above in a number of cell types. Apoptosis was not
as §1
(§5) Compounds and additional media were added 24 hours after cell plating. A compound master plate was created with concentrations 500 times greater than the final concentration added to the cells. All compound testing was done in duplicate using 6.3 fold dilutions starting with 10 mM. All outside wells (and 4 internal wells) were DMSO controls. Taxol and at least one additional control were run on all plates. Three microliters of the compound master plate were added to deep well blocks containing 750 μl of RPMI media. One hundred microliters were transferred from the compound/media deep well blocks to the plated cells resulting in a 500 fold dilution of the compounds. Cells were grown at 37° C., 5% CO2 for 48 hours.
as §3

HCT116 cells = experiment: Cell proliferation PAD assay, HCT116; settings: Homo sapiens, 48 hours
Source text: as §4, §1, §5, §3

HELA cells = experiment: Cell proliferation PAD assay, HeLa; settings: Homo sapiens, 6pt, 48 hours
Source text: as §4, §1, §5, §3

U2OS cells = experiment: Cell proliferation PAD assay, U2OS; settings: Homo sapiens, 6pt, 48 hours
Source text: as §4, §1, §5, §3

[1] = HCT-116, 6pt, read-out: HCT116 6pt

Compound	IC50 (OVCAR8 cells) [nM]	IC50 (UACC-257 cells) [nM]	IC50 (U2OS cells) [nM]	also measured
O=[N+]([O-])c1ccc(Sc2cccc3cccnc23)c2nonc12 [compound 5, 8-[(7-Nitro-2,1,3-benzoxadiazol-4-yl)thio]quinoline]	< 1000	< 1000	–	–
O=[N+]([O-])c1ccc(Oc2c(Cl)cc(S(=O)(=O)Nc3cccc4nsnc34)cc2Cl)c(Cl)c1 [compound 73, N-2,1,3-benzothiadiazol-4-yl-3,5-dichloro-4-(2-chloro-4-nitrophenoxy)benzenesulfonamide]	≥ 20000	≥ 20000	–	–
O=S(=O)(Nc1cccc2nonc12)c1ccc(Oc2ncc(C(F)(F)F)cc2Cl)cc1 [compound 78, N-2,1,3-benzoxadiazol-4-yl-4-{[3-chloro-5-(trifluoromethyl)pyridin-2-yl]oxy}benzenesulfonamide]	1000 to 20000	1000 to 20000	–	–
O=[N+]([O-])c1ccc(N2CCN(c3cc(C(F)(F)F)ccn3)CC2)c2nonc12 [compound 90, 4-nitro-7-{4-[4-(trifluoromethyl)pyridin-2-yl]piperazin-1-yl}-2,1,3-benzoxadiazole]	≥ 20000	≥ 20000	–	–
O=S(=O)(Nc1cccc2nsnc12)c1ccc(Oc2ccccc2)cc1 [compound 94, N-2,1,3-benzothiadiazol-4-yl-4-phenoxybenzenesulfonamide]	1000 to 20000	1000 to 20000	–	–
O=[N+]([O-])c1ccc(Oc2ccc(S(=O)(=O)Nc3cccc4nonc34)cc2Cl)c(C(F)(F)F)c1 [compound 114, N-2,1,3-benzoxadiazol-4-yl-3-chloro-4-[4-nitro-2-(trifluoromethyl)phenoxy]benzenesulfonamide]	1000 to 20000	1000 to 20000	–	–
Cc1ccc(N2CCN(c3ccc([N+](=O)[O-])c4nonc34)CC2)cc1C [compound 140, 4-[4-(3,4-dimethylphenyl)piperazin-1-yl]-7-nitro-2,1,3-benzoxadiazole]	1000 to 20000	1000 to 20000	–	–
N#CC1(c2ccccc2)CCN(c2ccc([N+](=O)[O-])c3nonc23)CC1 [compound 141, 1-(7-nitro-2,1,3-benzoxadiazol-4-yl)-4-phenylpiperidine-4-carbonitrile]	≥ 20000	≥ 20000	–	–
O=C(c1ccc(F)cc1)C1CCN(c2ccc([N+](=O)[O-])c3nonc23)CC1 [compound 142, (4-fluorophenyl)[1-(7-nitro-2,1,3-benzoxadiazol-4-yl)piperidin-4-yl]methanone]	1000 to 20000	1000 to 20000	–	–
CC1CC(C)CN(c2ccc([N+](=O)[O-])c3nonc23)C1 (centres unmarked) [compound 144, 4-(3,5-dimethylpiperidin-1-yl)-7-nitro-2,1,3-benzoxadiazole]	≥ 20000	≥ 20000	–	–
Cc1ccc(Cl)cc1N1CCN(c2ccc([N+](=O)[O-])c3nonc23)CC1 [compound 145, 4-[4-(5-chloro-2-methylphenyl)piperazin-1-yl]-7-nitro-2,1,3-benzoxadiazole]	≥ 20000	≥ 20000	–	–
O=[N+]([O-])c1ccc(N2CCN(c3ccc(O)cc3)CC2)c2nonc12 [compound 146, 4-[4-(7-nitro-2,1,3-benzoxadiazol-4-yl)piperazin-1-yl]phenol]	1000 to 20000	1000 to 20000	–	–
O=[N+]([O-])c1ccc(N2CCN(c3ncccc3C(F)(F)F)CC2)c2nonc12 [compound 148, 4-nitro-7-{4-[3-(trifluoromethyl)pyridin-2-yl]piperazin-1-yl}-2,1,3-benzoxadiazole]	1000 to 20000	1000 to 20000	–	–
O=[N+]([O-])c1ccc(SCCO)c2nonc12 [compound 150, 2-[(7-nitro-2,1,3-benzoxadiazol-4-yl)thio]ethanol]	–	–	< 1000	IC50 (DLD-1 cells): < 1000 nM; IC50 (HCT116 cells; [1]): < 1000 nM; IC50 (HELA cells): < 1000 nM
CCOC(=O)c1cc(C#N)c(C)nc1N1CCN(c2ccc([N+](=O)[O-])c3nonc23)CC1 [compound 153, ethyl 5-cyano-6-methyl-2-[4-(7-nitro-2,1,3-benzoxadiazol-4-yl)piperazin-1-yl]nicotinate]	≥ 20000	≥ 20000	–	–
O=[N+]([O-])c1ccc(Sc2nc3ccccc3s2)c2nonc12 [compound 158, 4-(1,3-benzothiazol-2-ylthio)-7-nitro-2,1,3-benzoxadiazole]	1000 to 20000	1000 to 20000	–	–
O=[N+]([O-])c1ccc(N2CCC(O)(c3ccc(Cl)cc3)CC2)c2nonc12 [compound 159, 4-(4-chlorophenyl)-1-(7-nitro-2,1,3-benzoxadiazol-4-yl)piperidin-4-ol]	1000 to 20000	≥ 20000	–	–
COC(=O)c1ccc(NS(=O)(=O)c2ccc(F)c3nonc23)cc1 [compound 167, methyl 4-{[(7-fluoro-2,1,3-benzoxadiazol-4-yl)sulfonyl]amino}benzoate]	–	–	< 1000	–
O=S(=O)(Oc1ccc(N2CCN(S(=O)(=O)c3ccc(Cl)c4nonc34)CC2)cc1)c1ccc(Cl)c2nonc12 [compound 171, 4-{4-[(7-chloro-2,1,3-benzoxadiazol-4-yl)sulfonyl]piperazin-1-yl}phenyl 7-chloro-2,1,3-benzoxadiazole-4-sulfonate]	–	–	< 1000	–
COC(=O)c1ccc(NS(=O)(=O)c2c(Cl)ccc3nonc23)cc1 [compound 178, methyl 4-{[(5-chloro-2,1,3-benzoxadiazol-4-yl)sulfonyl]amino}benzoate]	–	–	< 1000	IC50 (DLD-1 cells): < 1000 nM; IC50 (HCT116 cells; [1]): < 1000 nM; IC50 (HELA cells): < 1000 nM
O=S(=O)(c1c(Cl)ccc2nonc12)N1CCN(c2ncc(C(F)(F)F)cc2Cl)CC1 [compound 179, 5-chloro-4-({4-[3-chloro-5-(trifluoromethyl)pyridin-2-yl]piperazin-1-yl}sulfonyl)-2,1,3-benzoxadiazole]	–	–	< 1000	IC50 (DLD-1 cells): 1000 to 20000 nM; IC50 (HCT116 cells; [1]): 1000 to 20000 nM; IC50 (HELA cells): 1000 to 20000 nM
O=c1[nH]c2ccccc2n1C1CCN(S(=O)(=O)c2ccc(Cl)c3nonc23)CC1 [compound 188, 1-{1-[(7-chloro-2,1,3-benzoxadiazol-4-yl)sulfonyl]piperidin-4-yl}-1,3-dihydro-2H-benzimidazol-2-one]	–	–	< 1000	–
CC(=O)N1CCN(S(=O)(=O)c2c(Cl)ccc3nonc23)CC1 [compound 201, 4-[(4-acetylpiperazin-1-yl)sulfonyl]-5-chloro-2,1,3-benzoxadiazole]	–	–	< 1000	–
Cc1cccc(N2CCN(S(=O)(=O)c3c(Cl)ccc4nonc34)CC2)n1 [compound 202, 5-chloro-4-{[4-(6-methylpyridin-2-yl)piperazin-1-yl]sulfonyl}-2,1,3-benzoxadiazole]	–	–	< 1000	IC50 (DLD-1 cells): < 1000 nM; IC50 (HCT116 cells; [1]): < 1000 nM; IC50 (HELA cells): 1000 to 20000 nM
CC1(C)CCN(S(=O)(=O)c2c(Cl)ccc3nonc23)CC1 [compound 245, 5-chloro-4-[(4,4-dimethylpiperidin-1-yl)sulfonyl]-2,1,3-benzoxadiazole]	–	–	–	IC50 (HCT116 cells; HCT-116, 9pt, read-out: HCT116 9pt): < 1000 nM; IC50 (HELA cells): ≥ 20000 nM
O=[N+]([O-])c1ccc(N2CCN(c3ncc(C(F)(F)F)cc3Cl)CC2)c2nonc12 [compound 315, 4-{4-[3-chloro-5-(trifluoromethyl)pyrindin-2-yl]piperazin-1-yl}-7-nitro-2,1,3-benzoxadiazole]	1000 to 20000	≥ 20000	–	–
